From patent publication US8435978B2, “Substituted sulfonamide compounds” (Gruenenthal GmbH, priority 2006, dated 2013)

System: Bradykinin Receptor 1 (B1R)-mediated formation of IL-6 in IMR-90 fibroblasts
Test: Inhibition of the B1R-mediated formation of IL-6 in IMR-90 fibroblasts (IL-6 ELISA)
Format: cell-based, human
Conditions: antagonist 10 μM
Source text: The pro-inflammatory cytokines TNFα (or IL-1) lead in various cell types, such as, for example, fibroblasts, to an activation, which brings about inter alia enhanced expression of B1R. Subsequent stimulation of these cells with a B1R agonist results in the formation of further pro-inflammatory cytokines, such as, for example, IL-6. The chronification of inflammations is thereby promoted. Treatment with a B1R antagonist should lead to inhibition of the B1R agonist-induced IL-6 formation. By way of example, a B1R antagonist identified in the FLIPR assay was tested in this respect.
The human fibroblast cell line IMR-90 (ATCC, CCL-186) was passaged in culture medium (Ham's F12 nutrient mixture, Gibco Invitrogen GmbH, Karlsruhe Germany with 10% FBS, fetal bovine serum, Gibco, Invitrogen GmbH, Karlsruhe Germany; 0.1 mM non-essential amino acids, Gibco, 11140-035, 1 mM sodium pyruvate, Euro Clone, ECM0542D; 1.5 g/l sodium bicarbonate, Euro Clone, ECM0980D) on 80 cm^2 bottles (Nunc; 178905) (ratio:1:2 to 1:6; medium replaced every 3-4 days) and plated out for experiments on 96-well plates (Greiner bio-one; No. 655180) with 1×10^5 cells per well. The cells are incubated overnight at 37° C. and 5% CO2.
For activation with TNFα (human, recombinant, expressed in E. coli, SIGMA-ALDRICH T6674, 10 ng/ml) alone or TNFα combined with the human B1R agonist Lys-Des-Arg^9-bradykinin (Lys-Des-Arg^9-BK), the IMR-90 fibroblasts were incubated overnight at 37° C. and 5% CO2 in culture medium. The final concentrations of Lys-Des-Arg^9-BK were 1000 nM or 10 nM. Some IMR-90 stimulation batches additionally contained the B1R antagonist of Example 8 in a final concentration of 10 μM. 24 hours after activation, in each case 150 μl of culture medium were removed from all the different stimulation batches and were transferred to a new plate and frozen. After thawing of the supernatants, the IL-6 content was determined by means of a commercially available IL-6 Elisa.
ELISA Assay (Procedure, Modified According the Manufacturer's Specifications):
Elisa kit: from: BIOSOURCE; CytoSets™, Art. No.: CHC 1264
The above-described processes were carried out with Example compound 8.

[1] = TNFα 10 ng/ml, 24 hours after activation

- inhibition of the activation of IL-6 formation (TNFα + relatively high dose of Lys-Des-Arg^9-BK (1000 nM)): still partially inhibited
- inhibition of the activation of IL-6 formation (TNFα + relatively low dose of Lys-Des-Arg^9-BK (10 nM)): eliminated almost completely
Structure (SMILES): COc1cc(C)c(S(=O)(=O)N2CCCCC2COCC(=O)N2CCN(C3CCN(C)CC3)CC2)c(C)c1 (centres unmarked) [Example 8, 2-[1-(4-methoxy-2,6-dimethyl-phenylsulfonyl)-piperidin-2-ylmethoxy]-1-[4-(1-methyl-piperidin-4-yl)-piperazin-1-yl]-ethanone]
- Production of IL-6 (pg/ml) by IMR-90 fibroblasts, TNFα + Lys-Des-Arg^9-BK (10 nM) [1]: 119 pg/mL
- Production of IL-6 (pg/ml) by IMR-90 fibroblasts, TNFα + Lys-Des-Arg^9-BK (1000 nM) [1]: 483 pg/mL
- Production of IL-6 (pg/ml) by IMR-90 fibroblasts, TNFα alone [1]: 136 pg/mL
